Test results taken from patent CN109223750A, “琥珀酸在防治对虾肠炎中的应用” (South China Sea Fisheries Research Institute Chinese …, priority 2018, dated 2019).
Like-named read-outs stand apart in the source and are kept apart here.

What was measured:
NF-κB = details: 7 days, versus enteritis model group
TNF-α = details: 7 days, versus enteritis model group
IL-10 = details: 7 days, versus enteritis model group
IL-1β = details: 7 days, versus enteritis model group
[1] = tested on: shrimp intestinal mucosa (对虾 肠道黏膜); details: 7 days; for intestinal mucosal damage (histopathology): HE, ×200
[2] = cited from earlier work
bacteria (细菌) = details: by raising bacterial proton motive force; cited from earlier work
[3] = tested on: tilapia-derived Streptococcus agalactiae β-haemolysin/cytolysin (罗非鱼源无乳链球菌β-溶血/溶细胞素); details: cited from earlier work
HIF-1α = details: through activation of HIF-1α; cited from earlier work

## O=C(O)CCC(=O)O [琥珀酸]
NF-κB; high dose: 1% in feed
  NF-κB expression: 显著降低
NF-κB; low dose: 0.25% in feed
  NF-κB expression: 显著降低
TNF-α; high dose: 1% in feed
  TNF-α expression: 显著降低
TNF-α; low dose: 0.25% in feed
  TNF-α expression: 显著降低
IL-10; high dose: 1% in feed
  IL-10 expression: 显著降低
IL-10; low dose: 0.25% in feed
  IL-10 expression: 显著降低
IL-1β; high dose: 1% in feed
  IL-1β expression: 显著降低
IL-1β; low dose: 0.25% in feed
  IL-1β expression: 显著降低
[1]; high dose: 1% succinic acid in basal feed
  intestinal mucosal damage (histopathology): 肠道黏膜损伤已修复,形态完整,结构清晰
[1]; high dose: 1% succinic acid in basal feed, versus blank control group and versus low-dose group
  intestinal epithelial cell height: 均有明显增加
[1]; low dose: 0.25% succinic acid in basal feed
  intestinal mucosal damage (histopathology): 肠道黏膜损伤已修复,形态完整,结构清晰
[1]; low dose: 0.25% succinic acid in basal feed, versus blank control group
  intestinal epithelial cell height: 有明显增加
[2]; in vivo
  antibacterial and antioxidant function: 提高
[2]; shrimp
  feed conversion ratio: 降低
Bacteria (细菌)
  sensitivity of bacteria to antibiotics: 能够提高细菌对抗生素的敏感性
[3]
  activity of β-haemolysin/cytolysin: 抑制
HIF-1α
  IL-1β secretion, inflammation: 诱导IL-1β分泌促进炎症
